The subject of one test is human CD14+ monocytes. Briefly: Cytokine production in LPS-stimulated human monocytes (ELISA). In kind it is cell-based. The following applies: DI 12 h, LPS 24 h. On the procedure:
Cytokines in cell supernatants were analyzed using DuoSet® ELISA kits according to manufacturer protocol (R&D Systems). The supernatants from BMDMs were diluted 1:4, from human blood monocytes 1:3.
Blood from healthy donors was acquired from LRS chambers supplied by the Mississippi Valley Regional Blood Center. Peripheral blood mononuclear cells (PBMCs) from buffy coats were recovered from the Ficoll interface after a 400 g centrifugation for 30 min. Monocytes were isolated by adherence on a cell culture dish for 1 h at 37° C. and 5% C02 in RPMI containing 1% Human Serum Albumin (Albutein, Grifols, Spain). After extensive washes to allow removal of non-adherent cells, monocytes (>95% purity) were harvested, counted and 5×10^5 cells were plated per well in 24-well plates. The cells were treated with DI (125 μM if not stated otherwise) for 12 h and stimulated with LPS (100 ng/mL) for 1 h or as indicated. In some experiments cells were treated with DI in presence of EtGSH (1 mM, Santa Cruz).
On the technique in general: An ELISA detects its analyte on a solid surface through an enzyme-linked reagent.

The subject of the next test is Ikb-ζ. Briefly: IL17A-mediated Ikb-ζ induction in HaCat cells (western blot). In kind it is cell-based, human. Conditions: DI 12 h at non-toxic concentrations, IL17A 100 ng/ml up to 4 h.
A further test has as its system STAT3. The experiment in a line: STAT3 activation in IL17A-stimulated HaCat cells (western blot). In kind it is cell-based, human. Conditions: DI 12 h. On the technique in general: A western blot detects proteins with antibodies after separation by electrophoresis.
Test [1] deals with IκBζ target genes (Defb4, S100a7a, Lcn2, S100a9). The experiment in a line: IκBζ target gene expression in IL-17A-stimulated human keratinocytes (qPCR). In kind it is cell-based. Conditions: DI 12 h. On the procedure: RNA from cultured cells was isolated using a Total RNA I kit (OMEGA). RNA from mouse ear skin was extracted using RNAeasy mini kit (Qiagen) after tissue disruption with sterile zirconium beads on a MagNA Lyser (Roche). Isolated RNA was reverse transcribed using AffinityScript Multi-Temp reverse transcriptase (Agilent Technologies) according to the manufacturer's protocol. Reactions were performed in 96-well plates using a SYBR Green PCR Master mix (Thermo Fisher Scientific) using a LightCycler® 96 or LightCycler® 480 (Roche Diagnostics). All assays were performed at least in duplicates, and reaction mixtures in 20 μL volumes (96-plate) or 10 μL volumes (384-plate) were processed under the following cycling conditions: initial 10 min denaturation at 95° C., followed by 40 cycles at 95° C. for 10 s, 60° C. for 1 min. Threshold cycle (CT) values for each sample were determined by automated threshold analysis. Expression levels of all mRNAs were normalized to reference gene Actb in BMDMs or to Rpl19 in mouse keratinocytes and tissue samples; to ACTB in human blood monocytes or RPLP0 in human keratinocytes. The relative increase in the expression level of a gene was normalized to the level of expression in unstimulated control cells in each experiment. IκBζ-dependent genes selected for analysis in macrophages were previously published. […]
For orientation: In qPCR the cycle at which signal appears reflects the starting amount.

The next test deals with EAE. Briefly: EAE model of multiple sclerosis. Conditions: daily DI administration. In kind it is in vivo, mouse.
The next test has as its system HBL1 cells line (ABC). Briefly: DLBCL cell viability, resazurin assay, ABC subtype. Conditions: HBL1, 4 days, refreshed daily; DI 125-250 μM. The class given is cell-based.
Another test relates to BMDMs. Briefly: Nascent protein synthesis (Click chemistry labeling) and proteomic profiling in BMDMs. The class given is cell-based, mouse. Conditions: DI, LPS 1 h, metabolic labeling, proteomics. On the procedure:
BMDMs were plated 2×10^6 cells per well in 6-well plates. Cells were either (1) treated with DI (250 μM) for 12 h and then stimulated with LPS (100 ng/mL) for 1 h, or (2) only stimulated with LPS (100 ng/mL) for 1 h, or (3) only treated with DI (250 μM) for 12 h, or (4) neither treated with DI nor LPS. Cells were then washed 3× with PBS and lysed in 200 μL of urea buffer (8 M urea, 75 mM NaCl, 50 mM Tris pH 8.0, 1 mM EDTA). Lysates were then cleared by centrifugation at 20,000 g and protein concentrations were determined by BCA assay (Pierce). 15 μg of total protein per sample were processed further. Disulfide bonds were reduced with 5 mM dithiothreitol and cysteines were subsequently alkylated with 10 mM iodoacetamide. Samples were diluted 1:4 with 50 mM Tris/HCl (pH 8.0) and sequencing grade modified trypsin (Promega) was added in an enzyme-to-substrate ratio of 1:50. After 16 h of digestion, samples were acidified with 1% formic acid (final concentration). […]
BMDMs were grown in 12-well plate, […] per well and treated with DI (250 μM) for 10 h. […] Total protein concentration was determined using RC/DC™ Protein Assay (Biorad). […] Proteins were separated on 4%-20% polyacrylamide gradient gels (BioRad) and biotinylated proteins were detected by western blot with streptavidin-HRP conjugate (1:1000, #554066, BD Pharmingen). […]

Entries after “also recorded” stand apart in the source; their conditions may differ.

In the case of `C=C(CC(=O)OC)C(=O)OC` [DI, dimethyl itaconate], the LPS-induced cytokine production result with human CD14+ monocytes was “inhibition of cytokine production”. In addition, the “IL17A-mediated Ikb-ζ induction” value with Ikb-ζ is “almost completely inhibited”. Besides, the STAT3 activation entry in the test with STAT3 was “effective to inhibit STAT3 activation”. Further, the “expression of IL-17A signature / IκBζ target genes” value in test [1] is recorded as “also inhibited; also recorded: downregulated”. Moreover, the “clinical development of EAE” value in the test with EAE is on record as “ameliorated; also recorded: prevented clinical development of EAE”. Besides, the “growth / toxicity, ABC DLBCL” value with HBL1 cells line (ABC) is “selective toxicity towards ABC”. Moreover, the global protein synthesis result in the test with BMDMs is recorded as “did not affect protein synthesis globally”.

The values above are taken from patent US20200375929A1, “METHODS AND COMPOSITIONS FOR THE TREATMENT OF DISEASES ASSOCIATED WITH CANCER, INFLAMMATION, OR IMMUNE RESPONSE” (Washington University, priority 2017, published 2020).
